This assay addresses T1, Papain (Carica papaya, UniProt P00784).
T1 sequence (P00784 whole entry): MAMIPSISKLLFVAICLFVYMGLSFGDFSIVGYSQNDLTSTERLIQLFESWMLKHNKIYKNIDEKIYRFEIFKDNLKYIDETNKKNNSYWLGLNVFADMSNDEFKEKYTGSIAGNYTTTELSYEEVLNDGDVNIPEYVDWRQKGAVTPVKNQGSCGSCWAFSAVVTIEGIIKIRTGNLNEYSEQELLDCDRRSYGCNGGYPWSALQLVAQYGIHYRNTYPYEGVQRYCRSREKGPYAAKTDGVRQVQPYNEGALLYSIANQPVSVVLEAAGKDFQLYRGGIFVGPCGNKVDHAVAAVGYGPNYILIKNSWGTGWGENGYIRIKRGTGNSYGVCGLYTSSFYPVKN
Put plainly: Inhibition of Carica papaya papain.

The structures appear in SMILES notation.

In general, IC50 refers to the midpoint of a concentration-inhibition curve. Read a low IC50 as greater potency in that assay. Turning to `O=C([O-])C[n+]1cccc(C(=O)O)c1`, 442 µM corresponded to half-maximal inhibition (IC50).

Values taken from ChEMBL document CHEMBL1150891, “Isolation of 1-carboxymethylnicotinic acid from the marine sponge anthosigmella cf. raromicrosclera As a cysteine protease inhibitor1” (J Nat Prod, 1998).
